Source: patent publication US20220356174A1, “PYRIDIN-2-ONE COMPOUNDS USEFUL AS SMARCA2 ANTAGONISTS” (Epizyme, Inc., priority 2018, published 2022)
Where two headings read alike, the source gives them in different places.

Tests used:
FL-SMARCA4 = FL-SMARCA4 (Homo sapiens, UniProt P51532); assay: SMARCA4 ATPase activity assay (ADP-Glo, chicken mononucleosome substrate)
[1] = biological target: T1, FL-SMARCA2 (full-length human SMARCA2 isoform 1) (Homo sapiens, UniProt P51531); assay: SMARCA2 ATPase activity assay (ADP-Glo, chicken mononucleosome substrate); assay type: biochemical; conditions: ATP 250 uM
T1 construct: FLAG tag (YKDDDDK) (C); made in house; host or cells: Sf21 insect cells (baculovirus, pFastBacI)
T1 sequence (P51531 with tags, fused parts or gaps): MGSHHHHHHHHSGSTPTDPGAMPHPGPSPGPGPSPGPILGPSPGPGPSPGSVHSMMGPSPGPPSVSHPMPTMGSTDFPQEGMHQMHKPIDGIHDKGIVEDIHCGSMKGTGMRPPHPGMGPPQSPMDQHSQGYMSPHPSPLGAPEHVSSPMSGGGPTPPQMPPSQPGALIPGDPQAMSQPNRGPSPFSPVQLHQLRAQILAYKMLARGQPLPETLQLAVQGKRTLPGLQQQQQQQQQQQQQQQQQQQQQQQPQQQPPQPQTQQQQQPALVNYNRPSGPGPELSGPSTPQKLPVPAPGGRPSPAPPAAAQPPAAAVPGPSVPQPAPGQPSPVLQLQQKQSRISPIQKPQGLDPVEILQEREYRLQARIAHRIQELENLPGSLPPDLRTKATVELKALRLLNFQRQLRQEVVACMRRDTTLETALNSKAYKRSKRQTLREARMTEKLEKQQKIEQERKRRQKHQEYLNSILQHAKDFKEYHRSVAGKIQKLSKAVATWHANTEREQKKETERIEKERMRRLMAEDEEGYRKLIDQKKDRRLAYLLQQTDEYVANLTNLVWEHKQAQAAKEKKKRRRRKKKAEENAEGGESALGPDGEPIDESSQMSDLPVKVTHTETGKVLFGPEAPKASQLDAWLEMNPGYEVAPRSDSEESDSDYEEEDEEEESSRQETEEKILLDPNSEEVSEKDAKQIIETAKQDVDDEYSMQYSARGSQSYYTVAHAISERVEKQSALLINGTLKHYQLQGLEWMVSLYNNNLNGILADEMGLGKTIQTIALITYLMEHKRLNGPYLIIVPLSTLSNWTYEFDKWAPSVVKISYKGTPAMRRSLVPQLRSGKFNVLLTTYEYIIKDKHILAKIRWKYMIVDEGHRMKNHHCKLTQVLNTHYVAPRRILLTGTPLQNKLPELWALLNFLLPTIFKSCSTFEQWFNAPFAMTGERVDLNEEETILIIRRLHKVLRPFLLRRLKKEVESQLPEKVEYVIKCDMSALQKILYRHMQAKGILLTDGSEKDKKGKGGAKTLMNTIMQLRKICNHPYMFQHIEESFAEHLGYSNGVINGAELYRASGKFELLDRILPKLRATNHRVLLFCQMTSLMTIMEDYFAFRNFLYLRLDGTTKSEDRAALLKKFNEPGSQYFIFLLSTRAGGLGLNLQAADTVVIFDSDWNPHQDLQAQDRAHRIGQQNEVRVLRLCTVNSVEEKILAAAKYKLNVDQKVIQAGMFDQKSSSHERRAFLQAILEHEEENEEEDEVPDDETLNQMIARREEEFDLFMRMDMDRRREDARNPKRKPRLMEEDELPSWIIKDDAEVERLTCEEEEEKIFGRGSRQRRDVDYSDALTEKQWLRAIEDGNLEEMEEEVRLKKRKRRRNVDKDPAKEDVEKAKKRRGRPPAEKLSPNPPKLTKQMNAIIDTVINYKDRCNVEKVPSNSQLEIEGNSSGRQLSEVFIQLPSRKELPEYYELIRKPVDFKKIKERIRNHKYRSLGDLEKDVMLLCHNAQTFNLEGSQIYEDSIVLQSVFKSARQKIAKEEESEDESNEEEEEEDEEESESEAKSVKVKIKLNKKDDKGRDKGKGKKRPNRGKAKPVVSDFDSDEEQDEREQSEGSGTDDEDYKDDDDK

[2] = FL-SMARCA4 IC50, Table 3.2, ATPase assay, enzyme 5 nM, ATP 250 uM, chicken mononucleosome 10 nM, 30 min preincubation
[3] = Table 3.1, ATPase assay, enzyme 5 nM, chicken mononucleosome 10 nM, 30 min preincubation
[4] = FL-SMARCA4 IC>50, Table 3c.2, ATPase assay, enzyme 5 nM, ATP 250 uM, chicken mononucleosome 10 nM, 30 min preincubation
[5] = Table 3c.1, ATPase assay, enzyme 5 nM, chicken mononucleosome 10 nM, 30 min preincubation
[6] = Table 3d.1, ATPase assay, enzyme 5 nM, chicken mononucleosome 10 nM, 30 min preincubation, read-out: FL-SMARCA2 IC>50
[7] = FL-SMARCA4 IC50, Table 3b.2, SMARCA4 5 nM, ATP 250 uM, mononucleosome 10 nM
[8] = Table 3b.1, SMARCA2 5 nM, mononucleosome 10 nM
[9] = FL-SMARCA4 IC50, Table 3a.2, SMARCA4 5 nM, ATP 250 uM, mononucleosome 10 nM
[10] = Table 3a.1, SMARCA2 5 nM, mononucleosome 10 nM

Sequence of FL-SMARCA4 (P51532 whole entry, canonical isoform): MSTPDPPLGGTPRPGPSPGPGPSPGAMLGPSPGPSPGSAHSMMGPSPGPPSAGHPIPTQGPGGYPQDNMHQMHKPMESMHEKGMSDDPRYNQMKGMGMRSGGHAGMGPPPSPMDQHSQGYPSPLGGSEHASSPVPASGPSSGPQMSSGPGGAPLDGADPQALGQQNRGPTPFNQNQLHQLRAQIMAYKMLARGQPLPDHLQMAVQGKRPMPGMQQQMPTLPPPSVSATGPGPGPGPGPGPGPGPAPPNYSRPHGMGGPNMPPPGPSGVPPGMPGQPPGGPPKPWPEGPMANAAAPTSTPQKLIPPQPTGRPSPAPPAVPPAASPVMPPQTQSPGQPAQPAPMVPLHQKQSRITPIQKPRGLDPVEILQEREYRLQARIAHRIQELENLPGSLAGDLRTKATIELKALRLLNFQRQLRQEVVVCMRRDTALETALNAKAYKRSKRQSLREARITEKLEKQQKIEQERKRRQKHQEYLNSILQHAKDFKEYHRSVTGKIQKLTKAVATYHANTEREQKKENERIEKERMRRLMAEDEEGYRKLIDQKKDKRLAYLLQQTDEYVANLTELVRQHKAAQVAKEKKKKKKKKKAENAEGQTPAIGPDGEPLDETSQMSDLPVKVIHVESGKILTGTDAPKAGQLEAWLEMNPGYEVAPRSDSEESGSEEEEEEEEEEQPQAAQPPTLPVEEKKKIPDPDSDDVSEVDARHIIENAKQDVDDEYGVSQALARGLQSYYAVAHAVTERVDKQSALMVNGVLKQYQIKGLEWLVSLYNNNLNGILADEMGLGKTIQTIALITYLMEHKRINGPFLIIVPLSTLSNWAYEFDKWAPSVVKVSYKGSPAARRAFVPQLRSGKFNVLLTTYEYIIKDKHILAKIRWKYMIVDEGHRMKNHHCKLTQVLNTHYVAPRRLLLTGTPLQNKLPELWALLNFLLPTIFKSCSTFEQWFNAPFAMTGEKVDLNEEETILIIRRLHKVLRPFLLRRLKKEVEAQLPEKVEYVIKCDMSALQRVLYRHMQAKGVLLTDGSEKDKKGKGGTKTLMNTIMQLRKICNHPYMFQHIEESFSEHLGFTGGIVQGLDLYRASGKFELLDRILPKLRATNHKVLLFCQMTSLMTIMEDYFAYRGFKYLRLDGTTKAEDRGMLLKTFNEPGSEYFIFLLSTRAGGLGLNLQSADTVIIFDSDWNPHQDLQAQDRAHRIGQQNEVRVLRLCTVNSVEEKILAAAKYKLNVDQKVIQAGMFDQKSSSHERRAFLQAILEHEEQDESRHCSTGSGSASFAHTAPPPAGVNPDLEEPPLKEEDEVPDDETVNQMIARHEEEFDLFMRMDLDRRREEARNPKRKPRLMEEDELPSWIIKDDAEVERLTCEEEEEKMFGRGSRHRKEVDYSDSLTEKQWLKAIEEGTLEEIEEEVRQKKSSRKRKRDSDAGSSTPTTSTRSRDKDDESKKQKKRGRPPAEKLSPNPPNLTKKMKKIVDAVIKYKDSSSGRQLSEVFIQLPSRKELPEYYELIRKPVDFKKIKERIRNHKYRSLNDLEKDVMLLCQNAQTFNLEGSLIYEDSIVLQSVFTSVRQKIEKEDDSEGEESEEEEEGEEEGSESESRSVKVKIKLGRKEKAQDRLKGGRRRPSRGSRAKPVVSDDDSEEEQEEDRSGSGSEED

In the case of CCn1cc(NC(=O)c2cc(C(C)C)n(-c3ccccn3)n2)ccc1=O [Compound 10], the IC50 (FL-SMARCA4; [2]) is reported as > 50 µM and the IC50 [1, 3] is reported as > 50 µM.

O=C(Nc1cc(F)c(=O)n(CC(F)F)c1)c1cc(C2CN(c3ccncc3)C2)c(Cl)s1 [Compound 77c] gave an IC50 (FL-SMARCA4; [4]) of 30.5 µM and an IC50 [1, 5] of 6.56 µM.

Compound CCn1cc(NC(=O)c2cc(Cl)c(Cl)s2)cc(NCCOC)c1=O [Compound 113] has an IC50 (FL-SMARCA4; [2]) of 16.6 µM and an IC50 [1, 3] of 14.1 µM.

CCn1nc(NC(=O)c2cc(Cl)c(Cl)n2C)ccc1=O [Compound 16d] was tested, and the IC50 (FL-SMARCA4; FL-SMARCA4 IC50) was > 50 µM and the IC50 [1, 6] was 16.7 µM.

In the case of O=C(Nc1cc(F)c(=O)n(CC(F)F)c1)c1cc(C#Cc2cccc3c2CNC3=O)c(Cl)s1 [Compound 137c], the IC50 (FL-SMARCA4; [4]) is reported as 0.558 µM and the IC50 [1, 5] is reported as 0.3 µM.

For CCn1cc(NC(=O)Nc2ccccn2)ccc1=O [Compound 17d], the IC50 (FL-SMARCA4; FL-SMARCA4 IC50) was > 50 µM and the IC50 [1, 6] was > 50 µM.

In the case of NS(=O)(=O)c1ccc(C(=O)Nc2cc(F)c(=O)n(CCF)c2)cc1Cl [Compound 23b], the IC50 (FL-SMARCA4; [7]) is reported as > 50 µM and the IC50 [1, 8] is reported as > 50 µM.

N#Cc1cc(C(=O)Nc2ccc(=O)n(CC(F)(F)F)c2)sc1Cl [Compound 197] was tested, and the IC50 (FL-SMARCA4; [2]) was 0.831 µM and the IC50 [1, 3] was 0.281 µM.

Work on CCn1cc(NC(=O)c2cc(Cl)c(Cl)[nH]2)cc(F)c1=O [Compound 167] yielded an IC50 (FL-SMARCA4; [2]) of 2.86 µM and an IC50 [1, 3] of 0.609 µM.

In the case of CCn1cc(NC(=O)c2cc(Cl)c(Cl)s2)c(Cl)cc1=O [Compound 24d], the IC50 (FL-SMARCA4; FL-SMARCA4 IC50) is reported as > 50 µM and the IC50 [1, 6] is reported as 18.4 µM.

With O=C(Nc1cc(Cl)c(=O)n(CC(F)(F)F)c1)c1cnc(Cl)s1 [Compound 104] the IC50 (FL-SMARCA4; [2]) was 0.229 µM and the IC50 [1, 3] was 0.192 µM.

In the case of CCn1cc(NC(=O)c2cc(Cl)c(Cl)s2)cc(N(C)C)c1=O [Compound 149], the IC50 (FL-SMARCA4; [2]) is reported as > 50 µM and the IC50 [1, 3] is reported as > 50 µM.

For CCn1cc(NC(=O)c2ccc3cn[nH]c3n2)ccc1=O [Compound 38a], the IC50 (FL-SMARCA4; [9]) was > 50 µM and the IC50 [1, 10] was > 50 µM.

CCn1cc(NC(=O)c2cccc(Cl)n2)ccc1=O [Compound 25a] was tested, and the IC50 (FL-SMARCA4; [9]) was > 50 µM and the IC50 [1, 10] was > 50 µM.

CCn1c(Cl)c(NC(=O)c2cc(Cl)c(Cl)s2)ccc1=O [Compound 27d] was tested, and the IC50 (FL-SMARCA4; FL-SMARCA4 IC50) was > 50 µM and the IC50 [1, 6] was > 50 µM.

With O=C(Nc1ccc(=O)n(CC(F)F)c1)c1sc(C(F)(F)F)cc1Cl [Compound 46c] the IC50 (FL-SMARCA4; [4]) was > 50 µM and the IC50 [1, 5] was > 50 µM.

O=C(Nc1cc(F)c(=O)n(CC(F)F)c1)c1cc(Cl)c(C(F)F)s1 [Compound 296] gave an IC50 (FL-SMARCA4; [2]) of 0.52 µM and an IC50 [1, 3] of 0.094 µM.

With CS(=O)(=O)c1cc(NC(=O)c2cc(F)c(Cl)s2)cn(CC(F)F)c1=O [Compound 11c] the IC50 (FL-SMARCA4; [4]) was > 50 µM and the IC50 [1, 5] was > 50 µM.

For N#Cc1ccc(C(=O)Nc2cc(F)c(=O)n(CCF)c2)cc1C#N [Compound 20b], the IC50 (FL-SMARCA4; [7]) was 11.5 µM and the IC50 [1, 8] was 2.46 µM.

Compound Cn1c(C(=O)Nc2cc(Cl)c(=O)n(CC(F)(F)F)c2)cc(Cl)c1C#N [Compound 163] has an IC50 (FL-SMARCA4; [2]) of 1.17 µM and an IC50 [1, 3] of 0.309 µM.

For O=C(Nc1cc(-c2cnco2)c(=O)n(CC(F)F)c1)c1sc(C(F)(F)F)cc1Cl [Compound 18c], the IC50 (FL-SMARCA4; [4]) was > 50 µM and the IC50 [1, 5] was > 50 µM.

Cn1nccc1-c1cc(NC(=O)c2cc(Cl)c(C(F)(F)F)s2)cn(CC(F)F)c1=O [Compound 13c] was tested, and the IC50 (FL-SMARCA4; [4]) was > 50 µM and the IC50 [1, 5] was > 50 µM.

In the case of O=C(Nc1cc(F)c(=O)n(CCF)c1)c1cnc(Cl)o1 [Compound 253], the IC50 (FL-SMARCA4; [2]) is reported as > 50 µM and the IC50 [1, 3] is reported as > 50 µM.

In the case of CCn1cc(NC(=O)c2c[nH]c3c(Cl)cccc23)ccc1=O [Compound 24a], the IC50 (FL-SMARCA4; [9]) is reported as > 50 µM and the IC50 [1, 10] is reported as > 50 µM.

In the case of O=C(Nc1cc(F)c(=O)n(CCF)c1)N1CCC(Cl)=C(Cl)C1 [Compound 60a], the IC50 (FL-SMARCA4; [9]) is reported as 46.7 µM and the IC50 [1, 10] is reported as 14.3 µM.

Cc1cc(C(=O)Nc2cc(F)c(=O)n(CCF)c2)on1 [Compound 250] was tested, and the IC50 (FL-SMARCA4; [2]) was > 50 µM and the IC50 [1, 3] was 25.4 µM.

CCn1cc(NC(=O)c2cc(Cl)c(Cl)s2)cc(Cc2cnn(C)c2)c1=O [Compound 186] was tested, and the IC50 (FL-SMARCA4; [2]) was > 50 µM and the IC50 [1, 3] was 15.6 µM.

COc1ccc(C#Cc2cc(C(=O)Nc3cc(F)c(=O)n(CC(F)F)c3)sc2Cl)cc1 [Compound 44c] was tested, and the IC50 (FL-SMARCA4; [4]) was 2.19 µM and the IC50 [1, 5] was 1.04 µM.

With CN(C)C(=O)c1cc(C(=O)Nc2cc(F)c(=O)n(CC(F)F)c2)sc1C(F)(F)F [Compound 36d] the IC50 (FL-SMARCA4; FL-SMARCA4 IC50) was > 50 µM and the IC50 [1, 6] was 36.5 µM.

For CCn1cc(NC(=O)c2ccc3c(n2)OCO3)ccc1=O [Compound 37a], the IC50 (FL-SMARCA4; [9]) was > 50 µM and the IC50 [1, 10] was > 50 µM.

CCn1cc(NC(=O)c2cnc3ncccn23)ccc1=O [Compound 23a] was tested, and the IC50 (FL-SMARCA4; [9]) was > 50 µM and the IC50 [1, 10] was > 50 µM.

Work on O=C(Nc1cc(F)c(=O)n(CC(F)F)c1)c1cc(C#Cc2cn3ccccc3n2)c(Cl)s1 [Compound 6c] yielded an IC50 (FL-SMARCA4; [4]) of 0.679 µM and an IC50 [1, 5] of 0.901 µM.

For O=C(Nc1cc(F)c(=O)n(CCc2cn[nH]c2)c1)c1cc(Cl)c(Cl)s1 [Compound 270], the IC50 (FL-SMARCA4; [2]) was > 50 µM and the IC50 [1, 3] was > 50 µM.
